Assay results: patent publication US7276511B2, “Benzylamine derivative” (Zeria Pharmaceutical Co., Ltd., priority 2003, dated 2007)
Structures can show the parent of a compound that is named as a salt.

Legend:
[1] = molecular target: T1, Cloned Neurokinin Receptor Subtype 2 Human (Homo sapiens, UniProt P21452); assay: NK-2 receptor-binding experiment ([3H]-SR48968, CHO cell membranes); details: Table 4; inhibition of [3H]-SR48968 (0.85 nM) binding, pseudo-Hill analysis
T1 construct: purchased Biosignal Packard; host or cells: CHO cells
T1 sequence (P21452 1-398): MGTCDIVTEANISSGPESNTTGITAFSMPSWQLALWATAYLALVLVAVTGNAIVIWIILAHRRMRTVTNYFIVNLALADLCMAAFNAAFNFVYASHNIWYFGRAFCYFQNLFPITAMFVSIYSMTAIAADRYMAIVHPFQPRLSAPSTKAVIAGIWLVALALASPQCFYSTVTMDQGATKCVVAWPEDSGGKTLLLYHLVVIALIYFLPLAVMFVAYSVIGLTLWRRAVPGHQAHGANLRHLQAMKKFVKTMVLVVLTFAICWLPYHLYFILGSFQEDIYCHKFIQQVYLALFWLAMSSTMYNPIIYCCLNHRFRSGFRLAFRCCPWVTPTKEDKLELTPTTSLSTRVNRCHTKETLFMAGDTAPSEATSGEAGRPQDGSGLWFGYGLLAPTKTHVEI
Protocol: 2. NK-2 Receptor-binding Experiment
Cloned Neurokinin Receptor Subtype 2 Human (CHO cells, Biosignal Packard), [^3H]-SR48968 (Amersham, final concentration 0.85 nM), and a test compound were mixed with 20 mM HEPES buffer, and the mixture was incubated for 50 minutes at 27° C. After completion of incubation, membrane components were collected by means of an automatic filtration apparatus (Brandel) onto a GF/C glass fiber filter (Whatman).
Before use, in order to prevent non-specific binding, the glass fiber filter had been pre-treated with 0.1% polyethylene imine solution for about 4 hours.
The filter employed to collect the membrane components was transferred to a plastic vial containing UltimaGold MV (5 mL), and measured by means of a liquid scintillation counter (Packard, 2000CA) in terms of the radioactivity.
(§1) Percent radioactive ligand-receptor binding inhibition of each test compound was calculated by use of the following equation, and IC50 (nM) was determined through pseudo-Hill analysis.
(§2) Percent inhibition (%)=[1−(C−A)/(B−A)]×100
(§3) A: Radioactivity attributed to non-specific binding
(§4) B: Radioactivity without test compound
(§5) C: Radioactivity with test compound

NK-1 receptor [2] = molecular target: T2, NK-1 receptor (Homo sapiens, UniProt P25103); assay: NK-1 receptor-binding test ([3H]-Substance P, hNK1-CHO cells); parameters: expressed in transfected cells; host or cells: CHO-K1 cells (ATCC: CCL-61), G418-resistant, hNK1-CHO; details: Table 4; inhibition of [3H]-Substance P (0.5 nM) binding to hNK1-CHO cells, pseudo-Hill analysis; read-out: NK-1
Protocol: 1. NK-1 Receptor-binding Test
1) Preparation of Human NK-1 Receptor Expression Cells
FuGene 6 transfection reagent (Boegringer Mannheim) (3 μL) was diluted in an F-12 culture broth (97 μL), and pCR3.1 plasmid to which human NK-1 receptor cDNA had been introduced (Invitrogen) (10 μL) was added thereto. The mixture was mixed and incubated for 15 minutes (transfection reagent). CHO-K1 cells (ATCC: CCL-61) were cultured for 24 hours, and the whole reagent prepared above was added to the cultured CHO-K1 cells ([…]). Subsequently, culture was performed in the presence of G418 (Stratagene), and the resistant cells were employed as cells into which human NK-1 receptor gene was introduced (hNK1-CHO).
2) Subcultivation of hNK1-CHO Cells
The hNK1-CHO cells were treated with trypsin-EDTA and subcultivated in an F-12 culture broth (containing 10% fetal bovine serum, 10 mM HEPES, 100 U/mL, penicillin, 100 μg/mL streptmycin, 400 μg/mL G418) in a 75-cm^2 flask (FALCON). Cells to be employed in the receptor-binding experiment were added to a 24-well plate (IWAKI) at 1×10^5 cells/well, and subcultured for 48 hours at 37° C. under 95% […] and 5% CO2.
3) Receptor-binding Experiment
When the hNK1-CHO cells became subconfluent on the 24-well plate, an F-12 culture broth (containing 10 mM HEPES and 0.1% fetal bovine serum) (450 μL), [^3H]-Substance P (Amersham, final concentration 0.5 nM), and a test compound were added to the cells, and the mixture was incubated for 40 minutes at 37° C. For the measurement of non-specific binding, L703606 (Sigma) was added instead of the test compound. After completion of incubation, the mixture was washed with ice-cooled phosphate buffered saline containing 0.1% fetal bovine serum, and the cells were lysed with 1N NaOH (0.5 mL). The lysate was transfered to a plastic vial containing UltimaGold MV (5 mL), and the radioactivity was determined by means of a liquid liquid scintillation counter (Packard, 2000CA).
as §1, §2, §3, §4, §5
Target sequence in this assay (P25103 whole entry): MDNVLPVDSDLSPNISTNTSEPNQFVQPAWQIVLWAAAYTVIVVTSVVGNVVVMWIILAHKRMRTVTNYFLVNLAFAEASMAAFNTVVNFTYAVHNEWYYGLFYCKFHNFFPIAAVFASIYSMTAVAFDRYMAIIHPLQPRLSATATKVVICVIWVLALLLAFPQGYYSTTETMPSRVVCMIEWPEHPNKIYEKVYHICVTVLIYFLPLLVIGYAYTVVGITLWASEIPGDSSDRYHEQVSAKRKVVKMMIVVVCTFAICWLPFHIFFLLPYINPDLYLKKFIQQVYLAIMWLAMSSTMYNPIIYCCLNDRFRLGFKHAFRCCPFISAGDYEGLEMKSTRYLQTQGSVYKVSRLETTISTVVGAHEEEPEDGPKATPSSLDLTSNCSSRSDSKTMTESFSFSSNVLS

NK-1 receptor [3] = molecular target: T2, NK-1 receptor; details: known from Patent Document 4; cited from earlier work
Target sequence in this assay (P25103 whole entry, species assumed): as the sequence (P25103 whole entry) above

NK-2 receptor = molecular target: T3, NK-2 receptor (Homo sapiens, UniProt P21452); details: in vitro for (B); known from Patent Documents 2 and 4; cited from earlier work
T3 sequence (P21452 1-398): T1 sequence (P21452 1-398)

Compound	IC50 [1] [nM]	IC50 (NK-1 receptor [2]) [nM]	antagonistic activity against NK-1 receptor (NK-1 receptor [3])	antagonistic activity against NK-2 receptor (NK-2 receptor)
CN(CC(CCN1CCC2(CC1)c1ccccc1C[S+]2[O-])(c1ccc(Cl)c(Cl)c1)N(C)C(=O)CC(c1ccccc1)c1ccccc1)C(=O)CC(F)(F)F [Compound No. 1, N-{2-(3,4-dichlorophenyl)-2-[(3,3-diphenylpropionyl)-methylamino]-4-{spiro[benzo(c)thiophene-1(3H),4′-piperidine]-(2S)-oxide}-1′-yl-butyl}-3,3,3-trifluoro-N-methyl-propionamide hydrochloride]	1.6	1.2		
CC(C)C(=O)N(C)C[C@](CCN1CCC2(CC1)NC(=O)Cc1ccccc12)(c1ccc(Cl)c(Cl)c1)N(C)C(=O)NC(c1ccccc1)c1ccccc1 [Compound No. 44, 1-{1-(N-methyl-isobutylamide)-2-(S)-(3,4-dichlorophenyl)-4-[3-oxo-3,4-dihydro-2H-spiro(isoquinoline-1,4′-piperidin)-1′-yl]butan-2-yl}-3-benzhydryl-1-methylureahydrochloride]	2.4	11		
COc1cc(C(=O)N2CCO[C@](CCN3CCCC4(C3)c3ccccc3C[S+]4[O-])(c3ccc(Cl)c(Cl)c3)C2)cc(OC)c1OC (some centres unmarked) [(D)]			excellent antagonistic activity	excellent antagonistic activity
CN(C[C@](CCN1CCC2(CC1)NC(=O)Cc1ccccc12)(c1ccc(Cl)c(Cl)c1)N(C)C(=O)C(c1ccccc1)c1ccccc1)C(=O)CC(F)(F)F [Compound No. 43, N-{2-(S)-(N-methyl-2,2-diphenylacetamide)-2-(3,4-dichlorophenyl)-4-[3-oxo-3,4-dihydro-2H-spiro(isoquinoline-1,4′-piperidin)-1′-yl]butyl}-3,3,3-trifluoro-N-methylpropanamido hydrochloride]	2.1	7.7		
CCC(=O)N(C)CC(CCN1CCC2(CC1)c1ccccc1C[S+]2[O-])(c1ccc(Cl)c(Cl)c1)N(C)C(=O)CC(c1ccccc1)c1ccccc1 [Compound No. 5, N-{2-(3,4-dichlorophenyl)-2-[(3,3-diphenylpropionyl)-methylamino]-4-{spiro[benzo(c)thiophene-1(3H),4′-piperidine]-(2S)-oxide}-1′-yl-butyl}-N-methyl-propionamide hydrochloride]	1.9	6.3		
CN(C[C@](CCN1CCC2(CC1)c1ccccc1C[S@+]2[O-])(c1ccc(Cl)c(Cl)c1)N(C)C(=O)C(c1ccccc1)c1ccccc1)C(=O)CC(F)(F)F [Compound No. 42, N-{2-(S)-(N-methyl-2,2-diphenylacetamide)-2-(3,4-dichlorophenyl)-4-[spiro(benzo(c)thiophene-(2S)-oxido-1(3H),4′-piperidin)-1′-yl]butyl}-3,3,3-trifluoro-N-methylpropanamido hydrochloride]	4	2.1		
CN(C[C@@H](CCN1CCC2(CCc3ccccc32)CC1)c1ccc(Cl)c(Cl)c1)C(=O)c1ccccc1 [compound (B), reference compound]				exhibits antagonistic activity only to NK-2 receptor
CN(C[C@](CCN1CCC2(CC1)NC(=O)Cc1ccccc12)(c1ccc(Cl)c(Cl)c1)N(C)C(=O)NC(c1ccccc1)c1ccccc1)C(=O)C(F)(F)F [Compound No. 46, 1-{1-(2,2,2-trifluoro-N-methylacetamide)-2-(S)-(3,4-dichlorophenyl)-4-[3-oxo-3,4-dihydro-2H-spiro(isoquinoline-1,4′-piperidin)-1′-yl]butan-2-yl}-3-benzhydryl-1-methylurea sulfate]	1.8	10.1		
CC(C)C(=O)N(C)CC(CCN1CCC2(CC1)c1ccccc1C[S+]2[O-])(c1ccc(Cl)c(Cl)c1)N(C)C(=O)CC(c1ccccc1)c1ccccc1 [Compound No. 2, N-{2-(3,4-dichlorophenyl)-2-[(3,3-diphenylpropionyl)-methylamino]-4-{spiro[benzo(c)thiophene-1(3H),4′-piperidine]-(2S)-oxide}-1′-yl-butyl}-N-methyl-isobutylamide hydrochloride]	2.1	4.3		
CN(CC(CCN1CCC2(CC1)c1ccccc1C[S@+]2[O-])(c1ccc(Cl)c(Cl)c1)N(C)C(=O)NC(c1ccccc1)c1ccccc1)C(=O)C(F)(F)Cl (stereo partly drawn) [Compound No. 4, N-{2-(3-benzohydryl-1-methylureido)-2-(3,4-dichlorophenyl)-4-{spiro[benzo(c)thiophene-1(3H),4′-piperidine]-(2S)-oxide}-1′-yl-butyl}-2-chloro-2,2-difluoro-N-methyl-acetamide hydrochloride]	1.5	3.4		
CC(C)C(=O)N(C)C[C@](CCN1CCC2(CC1)c1ccccc1C[S@+]2[O-])(c1ccc(Cl)c(Cl)c1)N(C)C(=O)CC(c1ccccc1)c1ccccc1 [Compound No. 45, N-{2-(S)-(N-methyl-3,3-diphenylpropanamido)-2-(3,4-dichlorophenyl)-4-[spiro(benzo(c)thiophene-(2S)-oxido-1(3H),4′-piperidin)-1′-yl]butyl}-N-methyl-isobutylamide hydrobromide]	2.8	4.9		
CC(=O)NC1(c2ccccc2)CCN(CCC(CN(C)C(=O)C(F)F)(c2ccc(Cl)c(Cl)c2)N(C)C(=O)NC(c2ccccc2)c2ccccc2)CC1 (centres unmarked) [Compound No. 12, N-[4-(4-Acetylamino-4-phenyl-piperidine-1′-yl)-2-(3-benzhydryl-1-methyl-ureido)-2-(3,4-dichlorophenyl)-butyl]-2,2-difluoro-N-methyl-acetamide hydrochloride]	6.1	11		
